Measured values taken from US7605175B2, “Inhibitors of cyclin-dependent kinases, compositions and uses related thereto” (GPC Biotech AG, priority 2001, dated 2009).

Experiments:
Settings in all cases: Table 6
Cdk2/cyclin E = biological target: T1, Cdk2/cyclin E (Homo sapiens, UniProt P24941); test: Biochemical kinase assay Cdk2/cyclin E
T1 construct: made in house; host or cells: Sf9 insect cells
Source text: (§1) Enzymes: Cdc2/cyclin B was obtained from commercial sources. Cdk2/his-cyclin Eshort was expressed in Sf9 cells. Cdk2/cyclin A, cdk4/cyclin D1, and cdk6/cyclin D2 were expressed in Sf9 cells. Protein kinase A (catalytic subunit, from bovine heart) and protein kinase C (mixed isozymes from rat brain) were obtained from commercial sources.
(§2) Substrates: Histone H1 was from commercial sources. GST-Rb is glutathione-S-trans-ferase fused to the N-terminal of residues 379-928 of the Rb protein.
(§3) Cdk2/cyclin E, Cdk2/cyclin A, Cdk4/cyclin D1, and Cdk6/cyclin D2 activity was determined using a glutathione-sepharose capture assay. The enzymes were expressed in Sf9 insect cells as heterodimers, and the substrate (GST-Rb) was glutathione-S-transferase fused to residues 379 to 928 of Rb retinoblastoma protein, expressed in E. coli. The assay solution contained 50 mM Tris.HCl, 10 mM MgCl2, 1 mM dithiothreitol, 50 μM adenosine triphosphate, 2 μCi [γ-^33P]adenosine triphosphate, 10% dimethylsulfoxide (from compounds), pH 7.5, 40 μg GST-Rb, and enzyme in a 100 μL volume. Compounds were added at various concentrations between 1 nM and 10 μM. The reaction was allowed to proceed for 15 min at 30° C. and was stopped by the addition of 70 μL of stop solution (237 mM disodium ethylene-diamine tetraacetate, 105 mM adenosine triphosphate, pH 8.0). The GST-Rb was captured by binding to glutathione-sepharose bead (Amersham) for 110 min, and the suspension was filtered through a glass fiber filter. After washing the retained beads five time with phosphate-buffered saline containing 0.3% (w/v) Tween-20, the amount of ^33P incorporated was determined by scintillation counting after adding 100 μL scintillant. Relative activity was determined by dividing the amount of radioactivity incorporated in the presence of compound by the amount of radioactivity incorporated in a control experiment containing DMSO alone but no compound. The background radioactivity, determined in an experiment containing 50 mM disodium ethylenediamine tetraacetate in place of compound, was subtracted from all results before calculations.

Cdk4/cyclin D1 = biological target: T2, Cdk4/cyclin D1 (Homo sapiens, UniProt P11802); test: Biochemical kinase assay Cdk4/cyclin D1
T2 construct: made in house; host or cells: Sf9 insect cells
Source text: as §1, §2, §3

Cdc2/cyclin B = biological target: T3, Cdc2/cyclin B (Homo sapiens, UniProt P06493); test: Biochemical kinase assay Cdc2/cyclin B
T3 construct: purchased
Source text: as §1, §2
Assays: Cdc2/cyclinB activity was determined by measuring incorporation of radio-activity from adenosine [γ-^32P]triphosphate into Histone H1 using a TCA precipitation assay. Cdc2/cyclin B kinase and Histone H1 were obtained from commercial sources. The final assay solution contained 50 mM Tris.HCl, 10 mM MgCl2, 1 mM dithiothreitol, 50 μM adenosine triphosphate, 2 μCi ^32P, 10% dimethylsulfoxide (from compounds), pH 7.5, 20 μg Histone H1, 6 U enzyme in a 50 μL volume. Compounds were added at various concentrations between 1 nM and 10 μM. The reaction was started with the addition of enzyme, allowed to proceed for 20 min at 30° C., and stopped by the addition of 20 μL of stop solution (237 mM disodium ethylenediamine tetraacetate, 105 mM adenosine triphosphate, pH 8.0). The protein was precipitated by the addition of 35 μL 70% (w/v) trichloroacetic acid, and the precipitate was captured on a 96-well glass fiber filter plate (Millipore, Inc.), which had been wet with 25% (w/v) trichloroacetic acid. The filter was washed ten times with 25% (w/v) trichloroacetic acid, and the amount of incorporated ^32P was determined by scintillation counting after adding 100 μL scintillant (Microscint 20, Packard Instruments). Relative activity was determined by dividing the amount of radioactivity incorporated in the presence of compound by the amount of radioactivity incorporated in a control experiment containing DMSO alone but no compound. The background radioactivity, determined in an experiment containing 50 mM EDTA in place of compound, was subtracted from all results before calculations.

T3 sequence (P06493 whole entry, species assumed): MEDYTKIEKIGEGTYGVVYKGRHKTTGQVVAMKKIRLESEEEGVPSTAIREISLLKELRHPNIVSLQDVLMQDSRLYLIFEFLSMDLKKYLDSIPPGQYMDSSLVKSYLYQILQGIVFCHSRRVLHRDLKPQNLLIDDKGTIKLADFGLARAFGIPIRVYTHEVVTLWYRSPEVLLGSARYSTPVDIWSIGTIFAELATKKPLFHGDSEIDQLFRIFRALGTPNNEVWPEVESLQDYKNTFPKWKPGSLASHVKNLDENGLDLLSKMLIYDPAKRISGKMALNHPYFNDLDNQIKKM
T3 sequence (P14635 whole entry partner, species assumed): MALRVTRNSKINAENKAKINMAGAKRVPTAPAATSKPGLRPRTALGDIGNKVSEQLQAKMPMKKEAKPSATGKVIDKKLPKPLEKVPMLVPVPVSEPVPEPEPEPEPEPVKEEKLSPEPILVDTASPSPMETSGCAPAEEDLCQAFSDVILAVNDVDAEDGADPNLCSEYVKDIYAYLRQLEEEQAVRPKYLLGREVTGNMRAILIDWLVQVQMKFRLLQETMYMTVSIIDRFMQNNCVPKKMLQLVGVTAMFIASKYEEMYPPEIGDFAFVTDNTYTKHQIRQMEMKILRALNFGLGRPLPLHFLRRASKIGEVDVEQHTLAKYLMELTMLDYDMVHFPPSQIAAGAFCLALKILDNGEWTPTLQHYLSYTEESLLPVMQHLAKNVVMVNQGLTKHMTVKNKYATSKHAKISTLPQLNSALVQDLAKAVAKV
T2 sequence (P11802 whole entry, species assumed): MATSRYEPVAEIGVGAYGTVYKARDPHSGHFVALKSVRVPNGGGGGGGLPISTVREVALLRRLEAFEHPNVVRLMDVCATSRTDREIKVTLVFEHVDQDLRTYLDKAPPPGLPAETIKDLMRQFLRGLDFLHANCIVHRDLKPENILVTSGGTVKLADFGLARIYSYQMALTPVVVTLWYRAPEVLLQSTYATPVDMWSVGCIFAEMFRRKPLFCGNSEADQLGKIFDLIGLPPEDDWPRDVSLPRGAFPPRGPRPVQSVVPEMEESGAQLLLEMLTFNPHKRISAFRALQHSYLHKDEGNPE
T2 sequence (P24385 whole entry partner, species assumed): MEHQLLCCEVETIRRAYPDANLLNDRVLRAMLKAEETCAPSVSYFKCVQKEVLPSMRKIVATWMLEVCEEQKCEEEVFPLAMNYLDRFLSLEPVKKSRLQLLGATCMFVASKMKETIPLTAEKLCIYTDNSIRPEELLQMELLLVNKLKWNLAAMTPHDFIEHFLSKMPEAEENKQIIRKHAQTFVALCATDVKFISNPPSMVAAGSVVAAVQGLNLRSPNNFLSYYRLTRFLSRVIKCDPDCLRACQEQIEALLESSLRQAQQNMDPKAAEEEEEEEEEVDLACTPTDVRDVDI

Structure (SMILES)	IC50 (Cdk2/cyclin E) [nM]	IC50 (Cdk4/cyclin D1) [nM]	IC50 (Cdc2/cyclin B) [nM]
O=C(Nc1cccc2c1C(=O)c1c-2n[nH]c1-c1ccc(OCC(=O)N2CCOCC2)cc1)NN1CCOCC1 [Compound A36]	< 100	< 100	< 100
CC(C)C(N)C(=O)OCCN1CCN(NC(=O)Nc2cccc3c2C(=O)c2c-3n[nH]c2-c2ccc(OCCN3CCCC3)cc2)CC1 (stereo not shown) [Compound A33]	< 100	< 100	< 100
CN1CCN(NC(=O)Nc2cccc3c2C(=O)c2c(-c4ccc(OCCN5CCCC5)c(F)c4)n[nH]c2-3)CC1 [Compound A14]	< 100	< 100	< 100
Cc1cc(OCCN2CCN(C(C)C)CC2)ccc1-c1[nH]nc2c1C(=O)c1c(NC(=O)NN3CCN(C)CC3)cccc1-2 [Compound A19]	< 100	< 1000	< 100
O=C(O)COc1ccc(-c2n[nH]c3c2C(=O)c2c(NC(=O)NN4CCOCC4)cccc2-3)cc1 [Compound A68]	< 10	< 100	< 100
CCOC(=O)CN1CCN(NC(=O)Nc2cccc3c2C(=O)c2c-3n[nH]c2-c2ccc(OCCN3CCCC3)cc2)CC1 [Compound A26]	< 100	< 100	< 100
O=C(Nc1cccc2c1C(=O)c1c(-c3ccc(CN4CC[C@@H](O)C4)cc3)n[nH]c1-2)NN1CCOCC1 [Compound B8]	–	–	< 100
Cc1nc(Cc2nc3c(c(C(C)C)nn3-c3c(Cl)cccc3Cl)c(=O)[nH]2)cs1 [Compound A58]	< 10	< 10000	< 10000
O=C(Nc1cccc2c1C(=O)c1c(-c3ccc(CN4CCC[C@H]4CO)cc3)n[nH]c1-2)NN1CCOCC1 [Compound B6]	< 100	–	–
CN1CCN(Cc2ccc(-c3n[nH]c4c3C(=O)c3c(NC(=O)NN5CCOCC5)cccc3-4)cc2)CC1 [Compound A49]	< 100	–	< 100
O=C(Nc1cccc2c1C(=O)c1c(-c3ccc(OCCN4CCOCC4)c(F)c3)n[nH]c1-2)NN1CCOCC1 [Compound A27]	< 100	< 100	< 10
Cc1cc(OCCN2CCCN(C)CC2)ccc1-c1[nH]nc2c1C(=O)c1c(NC(=O)NN3CCN(C)CC3)cccc1-2 [Compound A9]	< 100	< 100	< 10
Cc1cc(OCCN2CCCCC2)ccc1-c1[nH]nc2c1C(=O)c1c(NC(=O)NN3CCN(C)CC3)cccc1-2 [Compound A8]	< 100	< 100	< 100
Cc1cc(OCCCN2CCN(C(C)C)CC2)ccc1-c1[nH]nc2c1C(=O)c1c(NC(=O)NN3CCOCC3)cccc1-2 [Compound A21]	< 10	< 1000	< 100
O=C(Nc1cccc2c1C(=O)c1c-2n[nH]c1-c1ccc(OCCN2CCOCC2)cc1)NN1CCOCC1 [Compound A3]	< 100	< 100	< 100
O=C(Nc1cccc2c1C(=O)c1c(-c3ccc(OCc4nnn[nH]4)cc3)n[nH]c1-2)NN1CCOCC1 [Compound A74]	< 100	–	< 100
O=C(Nc1cccc2c1C(=O)c1c(-c3ccc(CNCc4cccnc4)cc3)n[nH]c1-2)NN1CCOCC1 [Compound B12]	–	–	< 100
CN1CCN(NC(=O)Nc2cccc3c2C(=O)c2c-3n[nH]c2-c2ccc(OCC(=O)N3CCCC3)cc2)CC1 [Compound A44]	< 100	< 100	< 10
CN1CCN(NC(=O)Nc2cccc3c2C(=O)c2c-3n[nH]c2-c2ccc(O)cc2)CC1 [Compound A15]	< 100	< 100	< 10
O=C(Nc1cccc2c1C(=O)c1c(-c3ccc(CNCCO)cc3)n[nH]c1-2)NN1CCOCC1 [Compound B10]	–	–	< 100
CC(C)N1CCN(S(=O)(=O)c2ccc(-c3[nH]nc4c3C(=O)c3c(NC(=O)NN5CCOCC5)cccc3-4)cc2)CC1 [Compound A57]	< 10	< 100	< 10

Structure (SMILES)	IC50 (Cdk2/cyclin E) [nM]	IC50 (Cdk4/cyclin D1) [nM]	IC50 (Cdc2/cyclin B) [nM]
CC(C)c1nn(-c2c(Cl)cc(Cl)cc2Cl)c2nc(Cc3ccc(NS(=O)(=O)CCCN4CCN(C(C)C)CC4)cc3)[nH]c(=O)c12 [Compound A39]	< 100	< 1000	< 1000
CCOC(=O)COc1ccc(-c2[nH]nc3c2C(=O)c2c(NC(=O)NN4CCOCC4)cccc2-3)cc1 [Compound A65]	< 100	< 100	< 10
CCOC(=O)C1CCN(Cc2ccc(-c3n[nH]c4c3C(=O)c3c(NC(=O)NN5CCOCC5)cccc3-4)cc2)CC1 [Compound B9]	–	–	< 100
CN1CCN(NC(=O)Nc2cccc3c2C(=O)c2c(-c4ccc(OCCN5CCCC5)cc4F)n[nH]c2-3)CC1 [Compound A12]	< 100	< 100	< 100
O=C(Nc1cccc2c1C(=O)c1c(-c3ccc(CN4CCN(c5ccccn5)CC4)cc3)n[nH]c1-2)NN1CCOCC1 [Compound A82]	< 100	–	–
O=C(Nc1cccc2c1C(=O)c1c(-c3ccc(CNC(CO)CO)cc3)n[nH]c1-2)NN1CCOCC1 [Compound B1]	< 10	–	–
O=C(Nc1cccc2c1C(=O)c1c(-c3ccc(CN4CCN(CCO)CC4)cc3)n[nH]c1-2)NN1CCOCC1 [Compound B3]	< 100	–	< 10
CC(C)N1CCN(CCCOc2ccc(-c3[nH]nc4c3C(=O)c3c(NC(=O)NN5CCOCC5)cccc3-4)cc2)CC1 [Compound A20]	< 10	< 100	< 10
CC(C)OC(=O)CN1CCN(NC(=O)Nc2cccc3c2C(=O)c2c-3n[nH]c2-c2ccc(OCCN3CCCC3)cc2)CC1 [Compound A40]	< 100	< 100	< 100
O=C(Nc1cccc2c1C(=O)c1c(-c3ccc(CNCCOCCO)cc3)n[nH]c1-2)NN1CCOCC1 [Compound B4]	< 100	–	–
Cc1cc(OCCN2CCCC2)ccc1-c1[nH]nc2c1C(=O)c1c(NC(=O)NN3CCOCC3)cccc1-2 [Compound A29]	< 10	< 100	< 100
CN(C)C(=O)COc1ccc(-c2[nH]nc3c2C(=O)c2c(NC(=O)NN4CCOCC4)cccc2-3)cc1 [Compound A34]	< 10	< 100	< 100
O=C(Nc1cccc2c1C(=O)c1c(-c3ccc(CN(CCO)CCO)cc3)n[nH]c1-2)NN1CCOCC1 [Compound B2]	< 100	–	< 10
O=C(Nc1cccc2c1C(=O)c1c(-c3ccc(CN4CCN(c5cccc(C(F)(F)F)c5)CC4)cc3)n[nH]c1-2)NN1CCOCC1 [Compound B7]	< 100	–	–
O=C(Nc1cccc2c1C(=O)c1c(-c3ccc(CNCC(O)CO)cc3)n[nH]c1-2)NN1CCOCC1 (stereo not shown) [Compound B11]	–	–	< 100
COc1ccc(Cc2nc3c(c(C(C)C)nn3-c3c(Cl)cccc3Cl)c(=O)[nH]2)cc1 [Compound A67]	< 10	–	< 100
CC(C)c1nn(-c2c(Cl)cccc2Cl)c2nc(Cc3ccc(OCCO)cc3)[nH]c(=O)c12 [Compound A59]	< 100	< 1000	< 100
O=C(Nc1cccc2c1C(=O)c1c(-c3ccc(CN4CCOCC4)cc3)n[nH]c1-2)NN1CCOCC1 [Compound A47]	< 100	–	< 100
O=C(Nc1cccc2c1C(=O)c1c(-c3ccc(CN4CCC(O)CC4)cc3)n[nH]c1-2)NN1CCOCC1 [Compound B5]	< 100	–	–
O=C(Nc1cccc2c1C(=O)c1c(-c3ccc(CN4CCCC4)cc3)n[nH]c1-2)NN1CCOCC1 [Compound A51]	< 100	–	–
O=C(Nc1cccc2c1C(=O)c1c(-c3ccc(CNCc4ccccn4)cc3)n[nH]c1-2)NN1CCOCC1 [Compound B13]	–	–	< 100
